Consider one compound from US20220202964A1, “HEPARANASE COMPOUNDS AND METHODS OF USE” (University of Florida Research Foundation, Incorporated, priority 2019, published 2022).

In one data set the target is T1, β-Glucuronidase (Homo sapiens, UniProt P08236).
T1 sequence (P08236 23-651): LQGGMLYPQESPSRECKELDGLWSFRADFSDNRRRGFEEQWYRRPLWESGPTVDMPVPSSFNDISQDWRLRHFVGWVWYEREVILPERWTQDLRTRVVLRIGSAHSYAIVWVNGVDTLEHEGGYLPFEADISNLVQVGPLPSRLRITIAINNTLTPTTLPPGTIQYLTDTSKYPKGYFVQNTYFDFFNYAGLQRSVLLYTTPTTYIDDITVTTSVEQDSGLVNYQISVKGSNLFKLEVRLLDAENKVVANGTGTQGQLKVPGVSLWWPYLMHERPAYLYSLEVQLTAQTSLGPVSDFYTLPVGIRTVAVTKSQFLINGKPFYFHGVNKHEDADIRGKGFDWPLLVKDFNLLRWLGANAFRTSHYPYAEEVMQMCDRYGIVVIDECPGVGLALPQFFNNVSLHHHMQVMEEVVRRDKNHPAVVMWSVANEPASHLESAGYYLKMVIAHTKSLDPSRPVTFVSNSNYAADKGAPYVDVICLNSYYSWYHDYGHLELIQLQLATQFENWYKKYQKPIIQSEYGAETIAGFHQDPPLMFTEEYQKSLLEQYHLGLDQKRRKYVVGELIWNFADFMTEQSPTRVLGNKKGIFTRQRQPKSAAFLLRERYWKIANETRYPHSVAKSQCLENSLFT
The data set is described as follows: Fluorescence response to biological species: β-glucuronidase. The following applies: 5 μM; β-glucuronidase 5 μg; 4 h, 37° C. Format: biochemical. On the procedure:
(§1) 5 μM compound 1 (HADP) was incubated with various biological species at the indicated amount/concentration in 96-well microplate. Cysteine (5 mM), Glutathione (5 mM), H2O2 (100 μM), Esterase, Chondroitinase ABC, Hyaluronidase, Lysozyme, β-Glucuronidase, β-Glucosidase (5 μg each) and heparanase (2 μg). For Chondroitinase ABC and Hyaluronidase, 50 μg was also tested. Each sample was performed in triplicates. Then the microplate was sealed with sealing film and incubated at 37° C. for 4 hours. Fluorescence intensity was recorded on Spectramax M5 Multimode plate reader (Molecular Devices, USA). λex/em=365 nm/455 nm.

The nature of data set [1]: Fluorescence response to biological oxidizing and reducing species. Particulars: 5 μM; 100 μM H2O2, 5 mM GSH and Cys; 4 h, 37° C. As for the experimental part: as §1
Data set [2] concerns the target T2, heparanase (Homo sapiens, UniProt Q9Y251).
T2 sequence (Q9Y251 36-543): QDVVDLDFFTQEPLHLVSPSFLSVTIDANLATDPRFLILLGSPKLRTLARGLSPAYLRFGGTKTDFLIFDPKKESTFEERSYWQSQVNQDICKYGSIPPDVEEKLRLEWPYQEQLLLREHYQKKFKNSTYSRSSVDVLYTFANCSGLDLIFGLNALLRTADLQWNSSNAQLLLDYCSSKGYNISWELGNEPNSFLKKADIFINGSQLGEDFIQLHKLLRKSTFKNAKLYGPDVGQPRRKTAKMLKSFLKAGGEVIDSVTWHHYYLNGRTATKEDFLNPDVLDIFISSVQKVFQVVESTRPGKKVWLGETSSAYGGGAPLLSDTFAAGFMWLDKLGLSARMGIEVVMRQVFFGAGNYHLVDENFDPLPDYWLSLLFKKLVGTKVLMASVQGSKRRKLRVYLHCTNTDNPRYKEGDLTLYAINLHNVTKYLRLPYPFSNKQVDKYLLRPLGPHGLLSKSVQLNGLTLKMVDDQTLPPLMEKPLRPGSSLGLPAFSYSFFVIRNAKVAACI
Briefly: Activation of compounds by recombinant heparanase (fluorescence response). Format: biochemical. As for the experimental part: To a solution of 20 μL, of 50 μM compound 1 (HADP) and 160 μL 40 mM NaOAc (pH=5.0) was added 20 μL, 0.1 μg/μL heparanase to obtain 5 μM 1 (HADP) with 2 μg heparanase solution. After incubation at 37° C. for 2 h, the reaction solution was transferred to quartz cuvettes to measure absorbance or fluorescence. Absorbance spectrum scan range from 250 nm to 500 nm (1 nm increment). fluorescence spectrum setting: λex=365 nm, Slit Width 2.5 nm. Emission was record from 400 nm to 600 nm, Slit Width 5 nm. Absorption spectra were recorded on Shimadzu UV-2700 UV-VIS Spectrophotometer. Fluorescence spectra were recorded on Fluorolog TAU-3 Spectrofluorometer with a xenon lamp (Jobin Yvon-Spex, Instruments S. A., Inc.)
Fluorescence micro cells was charged with 20 μL, of 50 μM compound 1 (HADP) and 160 μL 40 mM NaOAc (pH=5.0). Then 20 μL, 0.05 μg/μL heparanase was added to the above solution. Fluorescence spectra were recorded from 0 min to 3 h. fluorescence spectrum setting: λex=365 nm, Slit Width 2.5 nm. Emission was record from 400 nm to 600 nm, Slit Width 5 nm.
To a solution of 20 μL, of 50 μM each compound and 160 μL, 40 mM NaOAc (pH=5.0) was added 20 μL, 0.05 μg/μL heparanase to obtain 5 μM each compound with 1 μg heparanase solution in 96-well microplate. Each compound was performed in triplicate. Then the microplate was sealed with sealing film and incubated at 37° C. Fluorescence intensity was recorded on Spectramax M5 Multimode plate reader (Molecular Devices, USA) at each timepoint. λex/em=365 nm/455 nm.
as §1

Data set [3] is described as follows: Selectivity toward heparanase against interfering biological molecules and enzymes. The data set is classed as biochemical. As for the experimental part:
as §1

A further data set concerns Hyaluronidase. Briefly: Fluorescence response to biological species: hyaluronidase. The data set is classed as biochemical. The following applies: 5 μM; hyaluronidase 5 μg (50 μg also tested); 4 h, 37° C. On the procedure:
as §1

A short description of data set [4]: pH profile of fluorescence / pKa. Particulars: pH range from 1 to 13. The data set is classed as physicochemical. As for the experimental part: So, pH profiles of the fluorophore DiFMU and Compound 1 (HADP) were evaluated. […] In contrast, the pKa of 4-methylumbelliferone is ca. 7.8. […] Moreover, the introduction of the fluorine substituents increased the quantum yield and improved the photostability, enabling highly sensitive detection for heparanase.

For data set [5], the target named is T2, heparanase. The data set is described as follows: HPLC analysis of compounds 1-4 with heparanase. The data set is classed as biochemical. The following applies: 5 μM, heparanase 1 μg, 4 hours, 37° C., NaOAc pH 5.0. As for the experimental part: Heparanase (1 μg, 20 μL) was added to the compounds 1-4 solution (180 μL, 5 μM) in 40 mM NaOAc buffer (pH 5.0) and the mixture was incubated for 4 hours at 37° C. The resulting mixtures were injected into HPLC for analysis. HPLC analysis was performed under the following conditions—mobile phase A: water with 0.1% TFA; B: acetonitrile with 0.1% TFA; 0-20 min: gradient elution, 25-95% B. The trace was monitored by DAD detector at 315 nm.

Turning to `Cc1cc(=O)oc2c(F)c(O[C@@H]3O[C@H](C(=O)O)[C@@H](O[C@H]4O[C@H](CO)[C@@H](O)[C@H](O)[C@H]4NS(=O)(=O)O)[C@H](O)[C@H]3O)c(F)cc12` [Compound 1], the fluorescence response result at β-Glucuronidase is listed as “did not trigger fluorescence response”. In addition, the fluorescence change entry in data set [1] is on record as “No fluorescence change”; in the data set with Hyaluronidase it was “did not afford obvious fluorescence change”. Besides, the “fluorescence response towards heparanase” value on heparanase [2] (5 μM compound, 1 μg heparanase, 40 mM NaOAc buffer (pH 5.0), 37° C., λex/em=365 nm/455 nm) is given as “significant fluorescence enhancement”. For the same compound, the “fluorescence enhancement turn-on ratio at 450 nm” value at heparanase [2] (5 μM, heparanase 2 μg (0.01 μgμl-1), after 2 hours, NaOAc pH 5.0) is on record as “up to 756 fold”. Further, on heparanase [2] (5 μM, heparanase 2 μg, 4 h, 37° C.), the “fluorescence off-on response to heparanase in selectivity panel” value was “largest “off-on” response”. The “time at which fluorescence reached a plateau” value on heparanase [2] (HADP 5 μM, heparanase 1 μg) came out at 2.5 h. On heparanase [2] (heparanase 2 μg, 5 μM probe), the “time at which the enzymatic reaction was completed after addition of heparanase” value stood at 40 min. In addition, the “selectivity for heparanase over other competitive analytes” value in data set [3] is “excellent selectivity”. The “fluorescence increase upon addition of other molecules and enzymes” value in data set [3] (5 μM, superphysiological levels, 4 h, 37° C.) is listed as “no fluorescence increase”. In addition, in data set [4], the “fluorescence change at 455 nm over pH” value was “no remarkable fluorescence change”. Moreover, on heparanase [5], the “cleavage by heparanase (HPLC trace)” value is given as “clean conversion”.
